# From PMC6109843, “Novel Quinazolinone Inhibitors of ALK2 Flip between Alternate Binding Modes: Structure–Activity Relationship, Structural Characterization, Kinase Profiling, and Cellular Proof of Concept” (Journal of Medicinal Chemistry, 2018)
# Experiments:
# Assay in all cases: DiscoverX scanEDGE kinase panel
# Format in all cases: binding
# Conditions in all cases: Cmpd Conc 1000 nM, read-out: % Ctrl
# PRKCE = biological target: T1, PRKCE (Homo sapiens, UniProt Q02156)
# T1 construct: purchased DiscoverX (DiscoveRx) KINOMEscan scanEDGE / KdELECT
# Excerpt: (§1) We hypothesized that inhibitors of the normal and flipped modes would display distinct selectivity profiles.
# (§2) 1. 16 and 21 kinome selectivity data
# (§3) (P – phosphorylated; nP – nonphosphorylated; % Ctrl values show the % of DNAEtagged
# (§4) kinase which was not displaced from a solid supported ligand by a test compound relative to
# (§5) untreated control, quantified by qPCR).
# (§6) Please note: ALKs 1, 2, 3, 4, 5 and 6 are listed by their gene symbols: ACVRL1 (ALK1), ACVR1
# (§7) (ALK2), BMPR1A (ALK3), ACVR1B (ALK4), TGFBR1 (ALK5) and BMPR1B (ALK6)
# (§8) Cmpd DiscoverX Gene Symbol Entrez Gene Symbol % Ctrl Cmpd Conc (nM)
# AKT2 = biological target: T2, AKT2 (Homo sapiens, UniProt P31751)
# T2 construct: purchased DiscoverX (DiscoveRx) KINOMEscan scanEDGE / KdELECT
# Excerpt: as §1, §2, §3, §4, §5, §6, §7, §8
# ABL1EP = biological target: T3, ABL1EP (Homo sapiens, UniProt P00519)
# T3 construct: purchased DiscoverX (DiscoveRx) KINOMEscan scanEDGE / KdELECT
# Excerpt: as §1, §2, §3, §4, §5, §6, §7, §8
# CSF1R = biological target: T4, CSF1R (Homo sapiens, UniProt P07333)
# T4 construct: purchased DiscoverX (DiscoveRx) KINOMEscan scanEDGE / KdELECT
# Excerpt: as §1, §2, §3, §4, §5, §6, §7, §8
# BMPR1A (ALK3) = biological target: T5, BMPR1A (ALK3) (Homo sapiens, UniProt P36894)
# T5 construct: purchased DiscoverX (DiscoveRx) KINOMEscan scanEDGE / KdELECT
# Excerpt: as §1, §2, §3, §4, §5, §6, §7, §8
# ERBB2 = biological target: T6, ERBB2 (Homo sapiens, UniProt P04626)
# T6 construct: purchased DiscoverX (DiscoveRx) KINOMEscan scanEDGE / KdELECT
# Excerpt: as §1, §2, §3, §4, §5, §6, §7, §8
# CDK7 = biological target: T7, CDK7 (Homo sapiens, UniProt P50613)
# T7 construct: purchased DiscoverX (DiscoveRx) KINOMEscan scanEDGE / KdELECT
# Excerpt: as §1, §2, §3, §4, §5, §6, §7, §8
# TRKA = biological target: T8, TRKA (Homo sapiens, UniProt P04629)
# T8 construct: purchased DiscoverX (DiscoveRx) KINOMEscan scanEDGE / KdELECT
# Excerpt: as §1, §2, §3, §4, §5, §6, §7, §8
# ACVR2B = biological target: T9, ACVR2B (Homo sapiens, UniProt Q13705)
# T9 construct: purchased DiscoverX (DiscoveRx) KINOMEscan scanEDGE / KdELECT
# Excerpt: as §1, §2, §3, §4, §5, §6, §7, §8
# PIM1 = biological target: T10, PIM1 (Homo sapiens, UniProt P11309)
# T10 construct: purchased DiscoverX (DiscoveRx) KINOMEscan scanEDGE / KdELECT
# Excerpt: as §1, §2, §3, §4, §5, §6, §7, §8
# NEK7 = biological target: T11, NEK7 (Homo sapiens, UniProt Q8TDX7)
# T11 construct: purchased DiscoverX (DiscoveRx) KINOMEscan scanEDGE / KdELECT
# Excerpt: as §1, §2, §3, §4, §5, §6, §7, §8
# RIOK2 = biological target: T12, RIOK2 (Homo sapiens, UniProt Q9BVS4)
# T12 construct: purchased DiscoverX (DiscoveRx) KINOMEscan scanEDGE / KdELECT
# Excerpt: as §1, §2, §3, §4, §5, §6, §7, §8
# BMPR2 = biological target: T13, BMPR2 (Homo sapiens, UniProt Q13873)
# T13 construct: purchased DiscoverX (DiscoveRx) KINOMEscan scanEDGE / KdELECT
# Excerpt: as §1, §2, §3, §4, §5, §6, §7, §8
# DCAMKL1 = biological target: T14, DCAMKL1 (Homo sapiens, UniProt O15075)
# T14 construct: purchased DiscoverX (DiscoveRx) KINOMEscan scanEDGE / KdELECT
# Excerpt: as §1, §2, §3, §4, §5, §6, §7, §8
# MARK3 = biological target: T15, MARK3 (Homo sapiens, UniProt P27448)
# T15 construct: purchased DiscoverX (DiscoveRx) KINOMEscan scanEDGE / KdELECT
# Excerpt: as §1, §2, §3, §4, §5, §6, §7, §8
# CDK9 = biological target: T16, CDK9 (Homo sapiens, UniProt P50750)
# T16 construct: purchased DiscoverX (DiscoveRx) KINOMEscan scanEDGE / KdELECT
# Excerpt: as §1, §2, §3, §4, §5, §6, §7, §8
# AURKA = biological target: T17, AURKA (Homo sapiens, UniProt O14965)
# T17 construct: purchased DiscoverX (DiscoveRx) KINOMEscan scanEDGE / KdELECT
# Excerpt: as §1, §2, §3, §4, §5, §6, §7, §8
# CHEK1 = biological target: T18, CHEK1 (Homo sapiens, UniProt O14757)
# T18 construct: purchased DiscoverX (DiscoveRx) KINOMEscan scanEDGE / KdELECT
# Excerpt: as §1, §2, §3, §4, §5, §6, §7, §8
# CDK3 = biological target: T19, CDK3 (Homo sapiens, UniProt Q00526)
# T19 construct: purchased DiscoverX (DiscoveRx) KINOMEscan scanEDGE / KdELECT
# Excerpt: as §1, §2, §3, §4, §5, §6, §7, §8
# CDK11 = biological target: T20, CDK11 (Homo sapiens, UniProt Q9BWU1)
# T20 construct: purchased DiscoverX (DiscoveRx) KINOMEscan scanEDGE / KdELECT
# Excerpt: as §1, §2, §3, §4, §5, §6, §7, §8
# PAK4 = biological target: T21, PAK4 (Homo sapiens, UniProt O96013)
# T21 construct: purchased DiscoverX (DiscoveRx) KINOMEscan scanEDGE / KdELECT
# Excerpt: as §1, §2, §3, §4, §5, §6, §7, §8
# MAP3K4 = biological target: T22, MAP3K4 (Homo sapiens, UniProt Q9Y6R4)
# T22 construct: purchased DiscoverX (DiscoveRx) KINOMEscan scanEDGE / KdELECT
# Excerpt: as §1, §2, §3, §4, §5, §6, §7, §8
# KIT(V559D,T670I) = biological target: T23, KIT(V559D,T670I) (Homo sapiens, UniProt P10721, T670I/V559D)
# T23 construct: purchased DiscoverX (DiscoveRx) KINOMEscan scanEDGE / KdELECT
# Excerpt: as §1, §2, §3, §4, §5, §6, §7, §8
# TIE2 = biological target: T24, TIE2 (Homo sapiens, UniProt Q02763)
# T24 construct: purchased DiscoverX (DiscoveRx) KINOMEscan scanEDGE / KdELECT
# Excerpt: as §1, §2, §3, §4, §5, §6, §7, §8
# IKKEalpha = biological target: T25, IKKEalpha (Homo sapiens, UniProt O15111)
# T25 construct: purchased DiscoverX (DiscoveRx) KINOMEscan scanEDGE / KdELECT
# Excerpt: as §1, §2, §3, §4, §5, §6, §7, §8
# FAK = biological target: T26, FAK (Homo sapiens, UniProt Q05397)
# T26 construct: purchased DiscoverX (DiscoveRx) KINOMEscan scanEDGE / KdELECT
# Excerpt: as §1, §2, §3, §4, §5, §6, §7, §8
# PLK3 = biological target: T27, PLK3 (Homo sapiens, UniProt Q9H4B4)
# T27 construct: purchased DiscoverX (DiscoveRx) KINOMEscan scanEDGE / KdELECT
# Excerpt: as §1, §2, §3, §4, §5, §6, §7, §8
# MAPKAPK2 = biological target: T28, MAPKAPK2 (Homo sapiens, UniProt P49137)
# T28 construct: purchased DiscoverX (DiscoveRx) KINOMEscan scanEDGE / KdELECT
# Excerpt: as §1, §2, §3, §4, §5, §6, §7, §8
# CSNK1D = biological target: T29, CSNK1D (Homo sapiens, UniProt P48730)
# T29 construct: purchased DiscoverX (DiscoveRx) KINOMEscan scanEDGE / KdELECT
# Excerpt: as §1, §2, §3, §4, §5, §6, §7, §8
# EGFR = biological target: T30, EGFR (Homo sapiens, UniProt P00533)
# T30 construct: purchased DiscoverX (DiscoveRx) KINOMEscan scanEDGE / KdELECT
# Excerpt: as §1, §2, §3, §4, §5, §6, §7, §8
# PIK3CG = biological target: T31, PIK3CG (Homo sapiens, UniProt P48736)
# T31 construct: purchased DiscoverX (DiscoveRx) KINOMEscan scanEDGE / KdELECT
# Excerpt: as §1, §2, §3, §4, §5, §6, §7, §8
# MEK2 = biological target: T32, MEK2 (Homo sapiens, UniProt P36507)
# T32 construct: purchased DiscoverX (DiscoveRx) KINOMEscan scanEDGE / KdELECT
# Excerpt: as §1, §2, §3, §4, §5, §6, §7, §8
# p38Ebeta = biological target: T33, p38Ebeta (Homo sapiens, UniProt Q15759)
# T33 construct: purchased DiscoverX (DiscoveRx) KINOMEscan scanEDGE / KdELECT
# Excerpt: as §1, §2, §3, §4, §5, §6, §7, §8
# ABL1EnP = biological target: T34, ABL1EnP (Homo sapiens, UniProt P00519)
# T34 construct: purchased DiscoverX (DiscoveRx) KINOMEscan scanEDGE / KdELECT
# Excerpt: as §1, §2, §3, §4, §5, §6, §7, §8
# PDGFRA = biological target: T35, PDGFRA (Homo sapiens, UniProt P16234)
# T35 construct: purchased DiscoverX (DiscoveRx) KINOMEscan scanEDGE / KdELECT
# Excerpt: as §1, §2, §3, §4, §5, §6, §7, §8
# ABL1(E255K)EP = biological target: T36, ABL1(E255K)EP (Homo sapiens, UniProt P00519, E255K)
# T36 construct: purchased DiscoverX (DiscoveRx) KINOMEscan scanEDGE / KdELECT
# Excerpt: as §1, §2, §3, §4, §5, §6, §7, §8
# MKNK2 = biological target: T37, MKNK2 (Homo sapiens, UniProt Q9HBH9)
# T37 construct: purchased DiscoverX (DiscoveRx) KINOMEscan scanEDGE / KdELECT
# Excerpt: as §1, §2, §3, §4, §5, §6, §7, §8
# VEGFR2 = biological target: T38, VEGFR2 (Homo sapiens, UniProt P35968)
# T38 construct: purchased DiscoverX (DiscoveRx) KINOMEscan scanEDGE / KdELECT
# Excerpt: as §1, §2, §3, §4, §5, §6, §7, §8
# ERK1 = biological target: T39, ERK1 (Homo sapiens, UniProt P27361)
# T39 construct: purchased DiscoverX (DiscoveRx) KINOMEscan scanEDGE / KdELECT
# Excerpt: as §1, §2, §3, §4, §5, §6, §7, §8
# YANK3 = biological target: T40, YANK3 (Homo sapiens, UniProt Q86UX6)
# T40 construct: purchased DiscoverX (DiscoveRx) KINOMEscan scanEDGE / KdELECT
# Excerpt: as §1, §2, §3, §4, §5, §6, §7, §8
# T27 sequence (Q9H4B4 whole entry): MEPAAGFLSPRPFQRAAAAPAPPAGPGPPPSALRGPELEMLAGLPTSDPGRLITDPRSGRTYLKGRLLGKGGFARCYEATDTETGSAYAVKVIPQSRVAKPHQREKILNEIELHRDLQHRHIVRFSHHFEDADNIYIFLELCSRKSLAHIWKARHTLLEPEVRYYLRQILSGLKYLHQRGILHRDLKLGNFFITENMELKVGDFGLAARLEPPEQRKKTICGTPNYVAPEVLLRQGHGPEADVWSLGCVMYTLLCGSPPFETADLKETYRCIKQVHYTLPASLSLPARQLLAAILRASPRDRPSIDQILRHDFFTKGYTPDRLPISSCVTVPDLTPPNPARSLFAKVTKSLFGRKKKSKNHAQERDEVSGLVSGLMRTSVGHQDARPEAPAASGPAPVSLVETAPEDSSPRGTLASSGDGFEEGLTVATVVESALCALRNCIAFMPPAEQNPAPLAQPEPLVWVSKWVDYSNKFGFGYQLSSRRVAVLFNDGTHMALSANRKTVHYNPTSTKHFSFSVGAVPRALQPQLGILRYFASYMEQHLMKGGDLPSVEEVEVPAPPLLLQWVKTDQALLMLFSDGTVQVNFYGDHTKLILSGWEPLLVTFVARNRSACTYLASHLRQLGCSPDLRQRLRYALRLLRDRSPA
# T31 sequence (P48736 whole entry): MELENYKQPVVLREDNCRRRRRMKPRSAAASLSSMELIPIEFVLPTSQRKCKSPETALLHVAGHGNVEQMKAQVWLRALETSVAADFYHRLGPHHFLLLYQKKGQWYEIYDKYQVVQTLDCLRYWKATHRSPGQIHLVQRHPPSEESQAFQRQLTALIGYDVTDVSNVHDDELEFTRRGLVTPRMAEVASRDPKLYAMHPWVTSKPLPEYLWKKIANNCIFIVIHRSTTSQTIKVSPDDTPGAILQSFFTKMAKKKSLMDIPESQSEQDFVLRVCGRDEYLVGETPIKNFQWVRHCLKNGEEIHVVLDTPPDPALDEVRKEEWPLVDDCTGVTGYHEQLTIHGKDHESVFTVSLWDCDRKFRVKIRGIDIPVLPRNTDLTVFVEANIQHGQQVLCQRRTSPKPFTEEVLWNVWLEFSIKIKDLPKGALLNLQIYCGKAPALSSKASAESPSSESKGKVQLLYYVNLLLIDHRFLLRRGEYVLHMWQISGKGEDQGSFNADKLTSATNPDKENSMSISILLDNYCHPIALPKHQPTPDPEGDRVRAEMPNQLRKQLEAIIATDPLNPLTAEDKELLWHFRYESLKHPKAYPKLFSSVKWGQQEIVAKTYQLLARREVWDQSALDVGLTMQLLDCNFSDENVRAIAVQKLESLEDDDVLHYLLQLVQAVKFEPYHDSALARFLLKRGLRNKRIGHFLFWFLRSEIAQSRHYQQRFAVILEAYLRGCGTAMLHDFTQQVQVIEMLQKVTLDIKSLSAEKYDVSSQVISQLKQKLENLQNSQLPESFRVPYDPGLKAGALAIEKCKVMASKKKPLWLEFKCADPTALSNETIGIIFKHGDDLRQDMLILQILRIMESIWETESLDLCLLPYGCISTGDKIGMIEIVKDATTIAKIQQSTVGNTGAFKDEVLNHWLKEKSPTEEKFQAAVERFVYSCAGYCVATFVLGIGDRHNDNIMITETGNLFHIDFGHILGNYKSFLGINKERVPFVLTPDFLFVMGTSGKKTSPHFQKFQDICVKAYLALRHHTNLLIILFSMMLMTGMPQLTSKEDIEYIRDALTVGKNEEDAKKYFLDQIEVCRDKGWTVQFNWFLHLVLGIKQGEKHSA
# T30 sequence (P00533 25-1210): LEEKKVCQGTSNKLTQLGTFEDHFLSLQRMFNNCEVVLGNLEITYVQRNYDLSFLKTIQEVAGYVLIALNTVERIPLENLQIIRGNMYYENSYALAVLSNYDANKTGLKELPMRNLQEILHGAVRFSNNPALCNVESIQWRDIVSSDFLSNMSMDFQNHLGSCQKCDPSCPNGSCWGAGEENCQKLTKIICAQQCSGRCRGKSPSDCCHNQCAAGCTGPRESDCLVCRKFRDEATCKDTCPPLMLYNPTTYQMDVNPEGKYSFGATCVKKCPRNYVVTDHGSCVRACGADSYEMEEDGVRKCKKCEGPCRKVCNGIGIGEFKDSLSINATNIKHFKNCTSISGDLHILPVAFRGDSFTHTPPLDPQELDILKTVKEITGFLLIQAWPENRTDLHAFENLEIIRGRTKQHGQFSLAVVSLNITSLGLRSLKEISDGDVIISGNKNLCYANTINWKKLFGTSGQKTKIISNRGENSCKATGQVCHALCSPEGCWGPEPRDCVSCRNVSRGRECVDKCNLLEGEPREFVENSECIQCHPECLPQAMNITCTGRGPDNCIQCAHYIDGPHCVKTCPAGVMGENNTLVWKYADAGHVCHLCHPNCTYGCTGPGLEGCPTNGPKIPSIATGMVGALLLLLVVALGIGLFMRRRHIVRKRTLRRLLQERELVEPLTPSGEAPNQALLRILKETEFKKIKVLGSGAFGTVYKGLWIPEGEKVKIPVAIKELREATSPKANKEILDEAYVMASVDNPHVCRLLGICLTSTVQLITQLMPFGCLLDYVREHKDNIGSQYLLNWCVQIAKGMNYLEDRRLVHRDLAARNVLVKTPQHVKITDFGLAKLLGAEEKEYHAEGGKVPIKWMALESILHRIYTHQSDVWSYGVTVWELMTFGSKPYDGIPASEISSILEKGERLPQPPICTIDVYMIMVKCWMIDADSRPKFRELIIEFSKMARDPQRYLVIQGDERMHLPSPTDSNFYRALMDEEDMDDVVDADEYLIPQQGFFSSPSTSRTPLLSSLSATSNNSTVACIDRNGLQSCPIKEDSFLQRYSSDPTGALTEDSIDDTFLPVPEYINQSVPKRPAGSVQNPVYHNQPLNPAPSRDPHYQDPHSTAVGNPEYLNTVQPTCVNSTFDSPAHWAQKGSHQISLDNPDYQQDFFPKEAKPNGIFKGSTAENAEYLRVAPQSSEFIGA
# T17 sequence (O14965 whole entry): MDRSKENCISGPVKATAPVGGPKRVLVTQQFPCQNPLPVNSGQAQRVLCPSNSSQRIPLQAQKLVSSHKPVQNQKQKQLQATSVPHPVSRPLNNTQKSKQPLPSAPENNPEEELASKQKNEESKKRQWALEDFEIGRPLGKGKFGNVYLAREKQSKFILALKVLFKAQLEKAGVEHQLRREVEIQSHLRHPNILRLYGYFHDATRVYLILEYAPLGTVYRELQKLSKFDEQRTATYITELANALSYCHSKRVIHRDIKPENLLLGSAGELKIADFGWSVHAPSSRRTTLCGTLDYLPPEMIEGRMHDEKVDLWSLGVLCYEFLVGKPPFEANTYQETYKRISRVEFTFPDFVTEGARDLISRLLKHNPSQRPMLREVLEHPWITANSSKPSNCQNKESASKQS
# T26 sequence (Q05397 whole entry): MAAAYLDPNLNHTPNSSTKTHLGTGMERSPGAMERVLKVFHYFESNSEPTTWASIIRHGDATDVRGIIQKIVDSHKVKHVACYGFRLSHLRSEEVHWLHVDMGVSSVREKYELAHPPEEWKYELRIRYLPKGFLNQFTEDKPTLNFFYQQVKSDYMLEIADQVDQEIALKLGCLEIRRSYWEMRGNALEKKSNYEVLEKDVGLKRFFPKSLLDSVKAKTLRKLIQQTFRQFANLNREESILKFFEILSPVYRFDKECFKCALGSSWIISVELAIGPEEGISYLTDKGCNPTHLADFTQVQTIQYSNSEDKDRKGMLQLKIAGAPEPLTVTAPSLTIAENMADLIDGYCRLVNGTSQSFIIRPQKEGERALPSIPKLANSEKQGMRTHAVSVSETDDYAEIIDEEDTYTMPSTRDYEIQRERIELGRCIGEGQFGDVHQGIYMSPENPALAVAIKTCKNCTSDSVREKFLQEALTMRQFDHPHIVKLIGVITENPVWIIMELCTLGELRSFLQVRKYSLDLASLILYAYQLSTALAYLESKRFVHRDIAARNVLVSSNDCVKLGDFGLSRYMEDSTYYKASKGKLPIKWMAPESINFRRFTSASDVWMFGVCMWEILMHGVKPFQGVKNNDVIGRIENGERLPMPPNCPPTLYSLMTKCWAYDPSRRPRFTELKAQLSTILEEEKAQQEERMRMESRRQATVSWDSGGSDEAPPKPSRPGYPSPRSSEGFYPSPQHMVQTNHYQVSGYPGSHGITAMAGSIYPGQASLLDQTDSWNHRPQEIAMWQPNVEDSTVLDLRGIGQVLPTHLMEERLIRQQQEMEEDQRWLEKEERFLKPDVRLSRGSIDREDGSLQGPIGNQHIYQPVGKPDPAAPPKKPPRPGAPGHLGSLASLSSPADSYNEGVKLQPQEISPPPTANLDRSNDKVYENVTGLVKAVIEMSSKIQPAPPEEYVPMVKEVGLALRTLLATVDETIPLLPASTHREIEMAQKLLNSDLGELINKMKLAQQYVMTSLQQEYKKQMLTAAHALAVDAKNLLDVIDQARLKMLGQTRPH
# T39 sequence (P27361 whole entry): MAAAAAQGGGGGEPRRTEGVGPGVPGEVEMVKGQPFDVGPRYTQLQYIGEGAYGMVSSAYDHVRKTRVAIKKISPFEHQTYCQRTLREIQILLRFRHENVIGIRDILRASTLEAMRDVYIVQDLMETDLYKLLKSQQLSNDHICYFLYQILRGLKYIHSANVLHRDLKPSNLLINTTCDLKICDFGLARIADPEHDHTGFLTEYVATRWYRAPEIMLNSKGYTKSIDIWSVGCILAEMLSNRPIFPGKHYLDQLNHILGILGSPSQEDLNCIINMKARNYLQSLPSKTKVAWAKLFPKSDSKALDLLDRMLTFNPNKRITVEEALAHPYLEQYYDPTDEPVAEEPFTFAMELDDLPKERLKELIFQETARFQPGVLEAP
# T19 sequence (Q00526 whole entry): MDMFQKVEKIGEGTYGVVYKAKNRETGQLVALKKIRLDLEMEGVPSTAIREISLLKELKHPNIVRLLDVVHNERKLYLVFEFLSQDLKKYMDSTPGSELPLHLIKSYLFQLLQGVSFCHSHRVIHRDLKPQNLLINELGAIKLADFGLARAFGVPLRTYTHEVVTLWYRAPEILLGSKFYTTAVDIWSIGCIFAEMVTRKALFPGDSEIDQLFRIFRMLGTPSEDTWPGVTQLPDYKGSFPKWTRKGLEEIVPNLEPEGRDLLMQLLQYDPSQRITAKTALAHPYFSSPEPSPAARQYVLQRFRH
smiles,measurement,setting,value
"O=c1c2cc(-c3ccnc4ccccc34)ccc2ncn1-c1ccc(N2CCOCC2)cc1 [compound 16, 3-(4-Morpholinophenyl)-6-(quinolin-4-yl)quinazolin-4(3H)-one]",remaining binding at 1 µM,PRKCE,92%
same,remaining binding at 1 µM,AKT2,86%
same,remaining binding at 1 µM,ABL1EP,77%
same,remaining binding at 1 µM,CSF1R,91%
same,remaining binding at 1 µM,BMPR1A (ALK3),77%
same,remaining binding at 1 µM,ERBB2,100%
same,remaining binding at 1 µM,CDK7,97%
same,remaining binding at 1 µM,TRKA,76%
same,remaining binding at 1 µM,ACVR2B,98%
same,remaining binding at 1 µM,PIM1,92%
same,remaining binding at 1 µM,NEK7,97%
same,remaining binding at 1 µM,RIOK2,100%
same,remaining binding at 1 µM,BMPR2,64%
same,remaining binding at 1 µM,DCAMKL1,92%
same,remaining binding at 1 µM,MARK3,90%
same,remaining binding at 1 µM,CDK9,94%
same,remaining binding at 1 µM,AURKA,100%
same,remaining binding at 1 µM,CHEK1,100%
same,remaining binding at 1 µM,CDK3,100%
same,remaining binding at 1 µM,CDK11,68%
same,remaining binding at 1 µM,PAK4,97%
same,remaining binding at 1 µM,MAP3K4,100%
same,remaining binding at 1 µM,"KIT(V559D,T670I)",100%
same,remaining binding at 1 µM,TIE2,99%
same,remaining binding at 1 µM,IKKEalpha,86%
same,remaining binding at 1 µM,FAK,97%
same,remaining binding at 1 µM,PLK3,90%
same,remaining binding at 1 µM,MAPKAPK2,96%
same,remaining binding at 1 µM,CSNK1D,68%
same,remaining binding at 1 µM,EGFR,71%
same,remaining binding at 1 µM,PIK3CG,100%
same,remaining binding at 1 µM,MEK2,85%
same,remaining binding at 1 µM,p38Ebeta,100%
same,remaining binding at 1 µM,ABL1EnP,76%
same,remaining binding at 1 µM,PDGFRA,8.7%
same,remaining binding at 1 µM,ABL1(E255K)EP,84%
same,remaining binding at 1 µM,MKNK2,100%
same,remaining binding at 1 µM,VEGFR2,95%
same,remaining binding at 1 µM,ERK1,97%
same,remaining binding at 1 µM,YANK3,86%
